According to ChEMBL document CHEMBL1201862, “PubChem BioAssay data set” (2004):
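All cell lines were grown in 96-well plates and treated with compound for 48 hours. Abbreviation: GI50, concentration required for 50% inhibition of growth.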 Calls of active or inactive are those of the source. Rule as the data show it: active = GI50 up to about 1.1 µM and inactive = higher.

Tests used:
Experiment in all cases: NCI tumour cell line growth inhibition, 48 h
LOX IMVI = test system: LOX IMVI
MCF7 = test system: MCF7
NCI/ADR-RES = test system: NCI/ADR-RES
SF-295 = test system: SF-295
SK-MEL-5 = test system: SK-MEL-5
UACC-257 = test system: UACC-257
786-0 = test system: 786-0
OVCAR-3 = test system: OVCAR-3
Hs-578T = test system: Hs-578T
SK-MEL-28 = test system: SK-MEL-28
HCT-116 = test system: HCT-116
HL-60 = test system: HL-60
A498 = test system: A498
RXF 393 = test system: RXF 393
ACHN = test system: ACHN
HT-29 = test system: HT-29
U-251 = test system: U-251
HCT-15 = test system: HCT-15
MDA-MB-435 = test system: MDA-MB-435
KM12 = test system: KM12
SNB-75 = test system: SNB-75
HCC 2998 = test system: HCC 2998
NCI-H226 = test system: NCI-H226
MOLT-4 = test system: MOLT-4
UO-31 = test system: UO-31
NCI-H460 = test system: NCI-H460
OVCAR-5 = test system: OVCAR-5
CAKI-1 = test system: CAKI-1
IGROV-1 = test system: IGROV-1
EKVX = test system: EKVX
SN12C = test system: SN12C
PC-3 = test system: PC-3
SNB-19 = test system: SNB-19
SK-MEL-2 = test system: SK-MEL-2
HOP-62 = test system: HOP-62
Malme-3M = test system: Malme-3M
SF-268 = test system: SF-268
NCI-H522 = test system: NCI-H522
MDA-N = test system: MDA-N
OVCAR-4 = test system: OVCAR-4
NCI-H23 = test system: NCI-H23
BT-549 = test system: BT-549
TK-10 = test system: TK-10
T47D = test system: T47D
MDA-MB-231 = test system: MDA-MB-231
DU-145 = test system: DU-145
UACC-62 = test system: UACC-62
SR = test system: SR
COLO 205 = test system: COLO 205
SW-620 = test system: SW-620
RPMI-8226 = test system: RPMI-8226
OVCAR-8 = test system: OVCAR-8
K562 = test system: K562
A549 = test system: A549
HOP-92 = test system: HOP-92
SF-539 = test system: SF-539
SK-OV-3 = test system: SK-OV-3
M14 = test system: M14

SMILES: Cn1c(=O)[nH]c2sc3c(c2c1=N)CCCC3
- GI50 (LOX IMVI): > 75 µM (inactive)
- GI50 (MCF7): > 75 µM (inactive)
- GI50 (NCI/ADR-RES): > 75 µM (inactive)
- GI50 (SF-295): > 75 µM (inactive)
- GI50 (SK-MEL-5): > 75 µM (inactive)
- GI50 (UACC-257): > 75 µM (inactive)
- GI50 (786-0): > 75 µM (inactive)
- GI50 (OVCAR-3): > 75 µM (inactive)
- GI50 (Hs-578T): > 75 µM (inactive)
- GI50 (SK-MEL-28): > 75 µM (inactive)
- GI50 (HCT-116): > 75 µM (inactive)
- GI50 (HL-60): 32.7 µM (inactive)
- GI50 (A498): > 75 µM (inactive)
- GI50 (RXF 393): > 75 µM (inactive)
- GI50 (ACHN): > 75 µM (inactive)
- GI50 (HT-29): > 75 µM (inactive)
- GI50 (U-251): > 75 µM (inactive)
- GI50 (HCT-15): > 75 µM
- GI50 (MDA-MB-435): > 75 µM (inactive)
- GI50 (KM12): > 75 µM (inactive)
- GI50 (SNB-75): > 75 µM (inactive)
- GI50 (HCC 2998): 58.9 µM (inactive)
- GI50 (NCI-H226): > 75 µM (inactive)
- GI50 (MOLT-4): > 75 µM (inactive)
- GI50 (UO-31): > 75 µM (inactive)
- GI50 (NCI-H460): > 75 µM (inactive)
- GI50 (OVCAR-5): > 75 µM (inactive)
- GI50 (CAKI-1): > 75 µM (inactive)
- GI50 (IGROV-1): > 75 µM (inactive)
- GI50 (EKVX): 54.7 µM (inactive)
- GI50 (SN12C): > 75 µM (inactive)
- GI50 (PC-3): > 75 µM (inactive)
- GI50 (SNB-19): > 75 µM (inactive)
- GI50 (SK-MEL-2): 0.199 µM (active)
- GI50 (HOP-62): > 75 µM (inactive)
- GI50 (Malme-3M): > 75 µM (inactive)
- GI50 (SF-268): > 75 µM (inactive)
- GI50 (NCI-H522): > 75 µM (inactive)
- GI50 (MDA-N): > 75 µM (inactive)
- GI50 (OVCAR-4): > 75 µM (inactive)
- GI50 (NCI-H23): > 75 µM (inactive)
- GI50 (BT-549): > 75 µM (inactive)
- GI50 (TK-10): > 75 µM (inactive)
- GI50 (T47D): > 75 µM (inactive)
- GI50 (MDA-MB-231): > 75 µM (inactive)
- GI50 (DU-145): > 75 µM (inactive)
- GI50 (UACC-62): > 75 µM (inactive)
- GI50 (SR): > 75 µM (inactive)
- GI50 (COLO 205): > 75 µM (inactive)
- GI50 (SW-620): > 75 µM (inactive)
- GI50 (RPMI-8226): 50.1 µM (inactive)
- GI50 (OVCAR-8): > 75 µM (inactive)
- GI50 (K562): > 75 µM (inactive)

SMILES: O=C1c2cc([N+](=O)[O-])ccc2NC2C(O)c3ccccc3N12 (configuration not stated)
- GI50 (LOX IMVI): 43.8 µM (inactive)
- GI50 (MCF7): 17.3 µM (inactive)
- GI50 (NCI/ADR-RES): 23.5 µM (inactive)
- GI50 (SF-295): 30.1 µM (inactive)
- GI50 (A549): 35.7 µM (inactive)
- GI50 (SK-MEL-5): 38 µM (inactive)
- GI50 (UACC-257): 16 µM (inactive)
- GI50 (786-0): 25.2 µM (inactive)
- GI50 (OVCAR-3): 20.4 µM (inactive)
- GI50 (HOP-92): 23.9 µM (inactive)
- GI50 (Hs-578T): 0.706 µM (active)
- GI50 (HCT-116): 30.8 µM (inactive)
- GI50 (A498): 18.3 µM (inactive)
- GI50 (RXF 393): 16.9 µM (inactive)
- GI50 (ACHN): 24.7 µM (inactive)
- GI50 (HT-29): 80.4 µM (inactive)
- GI50 (U-251): 23.5 µM (inactive)
- GI50 (HCT-15): 29.3 µM
- GI50 (MDA-MB-435): 52.8 µM (inactive)
- GI50 (KM12): 42.7 µM (inactive)
- GI50 (SNB-75): 20.2 µM (inactive)
- GI50 (HCC 2998): 47.9 µM (inactive)
- GI50 (NCI-H226): 29.2 µM (inactive)
- GI50 (MOLT-4): 19.7 µM (inactive)
- GI50 (UO-31): 25.9 µM (inactive)
- GI50 (NCI-H460): 26.4 µM (inactive)
- GI50 (OVCAR-5): > 100 µM (inactive)
- GI50 (CAKI-1): 21.6 µM (inactive)
- GI50 (IGROV-1): 24.9 µM (inactive)
- GI50 (EKVX): 0.619 µM (active)
- GI50 (SN12C): 48.9 µM (inactive)
- GI50 (PC-3): 53 µM (inactive)
- GI50 (SNB-19): 29 µM (inactive)
- GI50 (SK-MEL-2): 33.3 µM (inactive)
- GI50 (SF-539): 29.3 µM (inactive)
- GI50 (HOP-62): 30.1 µM (inactive)
- GI50 (SF-268): 27.2 µM (inactive)
- GI50 (NCI-H522): 16.2 µM (inactive)
- GI50 (MDA-N): 69.5 µM (inactive)
- GI50 (OVCAR-4): 19.7 µM (inactive)
- GI50 (NCI-H23): 24.3 µM (inactive)
- GI50 (BT-549): 22.8 µM (inactive)
- GI50 (TK-10): 13.2 µM (inactive)
- GI50 (T47D): 14.2 µM (inactive)
- GI50 (SK-OV-3): 17.7 µM (inactive)
- GI50 (MDA-MB-231): 31.6 µM (inactive)
- GI50 (DU-145): 9.55 µM (inactive)
- GI50 (UACC-62): 3.45 µM (inactive)
- GI50 (SR): 19.3 µM (inactive)
- GI50 (COLO 205): 61.8 µM (inactive)
- GI50 (RPMI-8226): 18.5 µM (inactive)
- GI50 (OVCAR-8): 23.3 µM (inactive)
- GI50 (M14): 47.4 µM (inactive)
- GI50 (K562): 22.2 µM (inactive)
